In patent US12662676B2, “Aptamer nucleic acid molecule, and complex and application thereof” (EAST CHINA UNIVERSITY OF SCIENCE AND TECHNOLOGY, priority 2019, dated 2026):

B1: F30-Broccoli: reported monomeric Broccoli aptamer in F30 scaffold, SEQ ID NO: 4, control (nucleic acid)
chain: UUGCCAUGUGUAUGUGGGUUCGCCCACAUACUCUGAUGAUCCAGACGGUCGGGUCCAGAUAUUCGUAUCUGUCGAGUAGAGUGUGGGCUGGAUCAUUCAUGGCAA
modifications: listed as RNA, further chemistry not given here
B2: TagBFP-4Pepper: TagBFP mRNA fused with 4Pepper-7, SEQ ID No: 27 (nucleic acid)
chain: AUGAGCGAGCUGAUUAAGGAGAACAUGCACAUGAAGCUGUACAUGGAGGGCACCGUGGACAACCAUCACUUCAAGUGCACAUCCGAGGGCGAAGGCAAGCCCUACGAGGGCACCCAGACCAUGAGAAUCAAGGUGGUCGAGGGCGGCCCUCUCCCCUUCGCCUUCGACAUCCUGGCUACUAGCUUCCUCUACGGCAGCAAGACCUUCAUCAACCACACCCAGGGCAUCCCCGACUUCUUCAAGCAGUCCUUCCCUGAGGGCUUCACAUGGGAGAGAGUCACCACAUACGAAGACGGGGGCGUGCUGACCGCUACCCAGGACACCAGCCUCCAGGACGGCUGCCUCAUCUACAACGUCAAGAUCAGAGGGGUGAACUUCACAUCCAACGGCCCUGUGAUGCAGAAGAAAACACUCGGCUGGGAGGCCUUCACCGAGACGCUGUACCCCGCUGACGGCGGCCUGGAAGGCAGAAACGACAUGGCCCUGAAGCUCGUGGGCGGGAGCCAUCUGAUCGCAAACAUCAAGACCACAUAUAGAUCCAAGAAACCCGCUAAGAACCUCAAGAUGCCUGGCGUCUACUAUGUGGACUACAGACUGGAAAGAAUCAAGGAGGCCAACAACGAGACCUACGUCGAGCAGCACGAGGUGGCAGUGGCCAGAUACUGCGACCUCCCUAGCAAACUGGGGCACAAGCUCAAUUAACACUCGCUAGAGCAUGGUUGGUACCGUAGUCAAGCUUCCCACGGAGGAUCCCCAAUCGUGGCGUGUCGGCCUCUCCCAAUCGUGGCGUGUCGGCCUCUCCCAAUCGUGGCGUGUCGGCCUCUCCCAAUCGUGGCGUGUCGGCCUCUCUUCGGAGAGGCACUGGCGCCGGAGAGGCACUGGCGCCGGAGAGGCACUGGCGCCGGAGAGGCACUGGCGCCGGGAUCCUCCGUGGG

assay: Fluorescence activation of III-3 fluorophore by Pepper aptamers and mutants; assay type: biochemical; details: Activation of III-3 by Pepper mutants with multiple mutations; 1 μM III-3 with 5 μM RNA
Protocol: Preparation of Pepper or Pepper mutant aptamer according to the commonly used experimental method (1). 5 μM aptamer and 1 μM fluorophore were incubated in the detection buffer (40 mM HEPES, pH 7.4, 125 mM KCl, 5 mM MgCl2, 5% DMSO). The maximal excitation and emission peaks of the aptamer-fluorophore complexes were determined using a Synergy Neo2 multifunctional microplate reader. The fluorescence intensities of the aptamer-fluorophore complexes at the maximal excitation and emission peaks were determined using a Synergy Neo2 multifunctional microplate reader. The control sample (1 μM fluorophore without aptamer) was also measured under the same conditions. Then the ratios of fluorescence intensity were calculated. For example, the fluorescence maximal excitation and emission peaks of the complex of 5 μM F30-Pepper-2 and 1 μM III-3 fluorophore are 485 nm and 530 nm, respectively. The fluorescence intensity of the complex at 485±10 nm excitation and 530 nm±10 nm emission was 36,000, the fluorescence intensity of the control sample (1 μM III-3 fluorophore only) under the same detection conditions was 10. Thus, the activation ratio of F30-Pepper-2 aptamer on III-3 fluorophore was 3,600-fold.
In order to detect the fluorescence activation of III-3 fluorophore by different Pepper mutant, the Pepper-1 sequence in F30-Pepper-1 was mutated according to Table 1. […] 1 μM III-3 was incubated with […] RNA and their fluorescence activation folds were determined according to the commonly used experimental method (5). […] In summary, many Pepper mutants containing single and multiple mutants still retain the ability to activate the fluorescence of III-3 fluorophore.
In order to detect the activation of III-3 by modified Pepper, base-modified Pepper-3 was synthesized (SEQ ID NO: 6, the underlined nucleotides in […] GGCC contain deoxyribonucleotide bases) and Pepper-4 (SEQ ID NO: 7, the underlined nucleotides in […] GGGCC contain 2′-F modification) (synthesized by Shanghai GenePharma Co., Ltd), which contain deoxyribonucleotides replacement (shaded bases in FIG. 5A) or 2′-F modification (shaded bases in FIG. 5B) in the stem-loop region of Pepper. Detection of the fluorescence activation of III-3 fluorophore by these modified Peppers was carried out according to the commonly used experimental method (5).

Row | Molecule | Activation folds
1 | C2G/G31C/G10C/C30G: F30-Pepper-1 mutant aptamer (NGCAAUCGUCGCGUGUCGNNNACUGGCGCGCN; Pepper mutant embedded in F30 scaffold, chemistry not given here, further chemistry not given here) | 2684 folds
2 | C2A/G31U: F30-Pepper-1 mutant aptamer (NACAAUCGUGGCGUGUCGNNNACUGGCGCCUN; Pepper mutant embedded in F30 scaffold, chemistry not given here, further chemistry not given here) | 3365 folds
3 | C2G/G31C/G10A/C30U: F30-Pepper-1 mutant aptamer (NGCAAUCGUAGCGUGUCGNNNACUGGCGCUCN; Pepper mutant embedded in F30 scaffold, chemistry not given here, further chemistry not given here) | 2365 folds
4 | C2U/G31A/G10C/C30G: F30-Pepper-1 mutant aptamer (NUCAAUCGUCGCGUGUCGNNNACUGGCGCGAN; Pepper mutant embedded in F30 scaffold, chemistry not given here, further chemistry not given here) | 2986 folds
5 | C2U/G31A: F30-Pepper-1 mutant aptamer (NUCAAUCGUGGCGUGUCGNNNACUGGCGCCAN; Pepper mutant embedded in F30 scaffold, chemistry not given here, further chemistry not given here) | 3256 folds
6 | C2A/G31U/G10A/C30U: F30-Pepper-1 mutant aptamer (NACAAUCGUAGCGUGUCGNNNACUGGCGCUUN; Pepper mutant embedded in F30 scaffold, chemistry not given here, further chemistry not given here) | 3105 folds

same assay, conditions: Activation of III-3 by Pepper mutants with single mutation; 1 μM III-3 with 5 μM RNA

Row | Molecule | Activation folds
7 | C3U: F30-Pepper-1 mutant aptamer (NCUAAUCGUGGCGUGUCGNNNACUGGCGCCGN; RNA, backbone, methylation of C and the base at N not given here; Pepper aptamer mutant embedded in F30 scaffold) [Compound C3U] | 2016 folds
8 | U14A: F30-Pepper-1 mutant aptamer (NCCAAUCGUGGCGAGUCGNNNACUGGCGCCGN; RNA, backbone and the base at N not given here; Pepper variant inserted in F30 scaffold RNA) [Compound U14A] | 1524 folds
9 | C7U: F30-Pepper-1 mutant aptamer (NCCAAUUGUGGCGUGUCGNNNACUGGCGCCGN; RNA, backbone, methylation of C and the base at N not given here; Pepper aptamer mutant embedded in F30 scaffold) [Compound C7U] | 2268 folds
10 | C27G: F30-Pepper-1 mutant aptamer (NCCAAUCGUGGCGUGUCGNNNACUGGGGCCGN; Pepper mutant embedded in F30 scaffold, chemistry not given here, further chemistry not given here) [Compound C27G] | 1875 folds
11 | U9A: F30-Pepper-1 mutant aptamer (NCCAAUCGAGGCGUGUCGNNNACUGGCGCCGN; RNA, backbone and the base at N not given here; Pepper variant inserted in F30 scaffold RNA) [Compound U9A] | 2124 folds
12 | C27U: F30-Pepper-1 mutant aptamer (NCCAAUCGUGGCGUGUCGNNNACUGGUGCCGN; Pepper mutant embedded in F30 scaffold, chemistry not given here, further chemistry not given here) [Compound C27U] | 3158 folds

assay: Thermostability of Pepper (fluorescence after 5 minutes at different temperatures); assay type: physicochemical; details: 1 μM aptamer with 10 μM fluorophore (III-3 for F30-Pepper-1, DFHBI-1T for F30-Broccoli), 5 minutes at each temperature
Protocol: In order to test the thermostability of Pepper, 10 μM III-3 was incubated with 1 μM F30-Pepper-1, and then was placed at different temperatures for 5 minutes before the fluorescence was determined. 10 μM DFHBI-1T was incubated with 1 μM F30-Broccoli to be as the control.

Row | Molecule | Tm
13 | B1 | 48 °C

assay: RNA extraction and purification with Mal-III-3 beads, in-gel fluorescence; details: gel incubated with 5 μM III-3 for 30 min
Protocol: In order to use Pepper for RNA extraction and purification, the pCDNA3.1 hygro(+)-TagBFP-4Pepper-7 and pCDNA3.1 hygro(+)-mCherry-4Pepper-7 plasmids in Example 12 were transfected into COS-7 cells, respectively. 24 hours after transfection, the cells were collected and the total RNA of the cells was extracted using the Easyp Super Total RNA Extraction Kit (Promega). The extracted total RNA was dissolved in buffer containing 40 mM HEPES, pH 7.4, 125 mM KCl, 5 mM MgCl2. The RNA was incubated at 70° C. for 10 min and placed at room temperature for more than 30 min.
500 μL activated Thiol Sepharose 4B (GE Healthcare) was washed twice with 500 μL PBS, and then was incubated with PBS containing 10 mM TCEP (Sigma) for 1 h at room temperature. After washing twice with 500 μL PBS, maleamide conjugated III-3 fluorophore (Mal-III-3) was added to react for 30 min at room temperature, and was washed three times with 500 μL PBS. The treated total RNA was incubated with the treated beads at room temperature. After 30 minutes, the mixture was centrifuged at 4000 rpm for 2 minutes, and the supernatant was discarded. […]
The recovered RNA was validated by electrophoresis. The gel was incubated with buffer containing 5 μM III-3 in 40 mM HEPES, pH 7.4, 125 mM KCl, and 5 mM MgCl2 for 30 min, and the fluorescence of 4Pepper-III-3 in the gel was detected.

Row | Molecule | in-gel fluorescence of recovered RNA
14 | B2 | bright Pepper-III-3 fluorescence signals
